Experimental data reported in patent publication US20250145585A1, “HETEROCYCLIC INHIBITORS OF IGF-1R FOR TREATMENT OF DISEASE” (HORIZON THERAPEUTICS IRELAND DAC, priority 2023, published 2025).

Molecular target: T1, IGF-1R (Homo sapiens, UniProt P08069)
T1 construct: expressed in transfected cells
Experiment: Example B-2: IGF-1R Assay (PathHunter cell lines, EC80 agonist challenge, chemiluminescent detection)
Type: cell-based
Conditions: PathHunter cells, compound 60 minutes at 37° C., EC80 agonist 3 hours; read-out: IC50, Biological Activity against IGF-1R (Table B2)
Description: PathHunter cell lines were expanded from freezer stocks according to standard procedures. Cells were seeded in a total volume of 20 μL into white walled, 384-well microplates and incubated for the appropriate time prior to testing.
Cells are pre-incubated with compound followed by EC80 agonist challenge as follows: • R. 1. Intermediate dilution of sample stocks was performed to generate 5× sample in assay buffer. • 2. 5 μL of 5× sample was added to cells and incubated at 37° C. for 60 minutes. Vehicle concentration was 1%. • 3. 5 IL of 6× EC80 agonist in assay buffer was added to the cells and incubated at room temperature for 3 hours.
Assay signal was generated through a single addition of 12.5 or 15 μL (50% v/v) of PathHunter Detection reagent cocktail for agonist and antagonist assays respectively, followed by a one hour incubation at room temperature. Microplates were read following signal generation with a PerkinElmer Envision™ instrument for chemilumine-scent signal detection.
Compound activity was analyzed using CBIS data analysis suite (ChemInnovation, CA). Percentage inhibition was calculated using the following formula: % Inhibition=100%×(1−(mean RLU of test sample−mean RLU of vehicle control)/(mean RLU of EC80 control−mean RLU of vehicle control)). The activity for representative examples of the invention is shown in the following table, wherein A: IC50≤500 nM; B: 500 nM<IC50≤2 μM; C: 2 μM<IC50≤10 μM; D: IC50>10 μM.

T1 sequence (P08069 31-1367): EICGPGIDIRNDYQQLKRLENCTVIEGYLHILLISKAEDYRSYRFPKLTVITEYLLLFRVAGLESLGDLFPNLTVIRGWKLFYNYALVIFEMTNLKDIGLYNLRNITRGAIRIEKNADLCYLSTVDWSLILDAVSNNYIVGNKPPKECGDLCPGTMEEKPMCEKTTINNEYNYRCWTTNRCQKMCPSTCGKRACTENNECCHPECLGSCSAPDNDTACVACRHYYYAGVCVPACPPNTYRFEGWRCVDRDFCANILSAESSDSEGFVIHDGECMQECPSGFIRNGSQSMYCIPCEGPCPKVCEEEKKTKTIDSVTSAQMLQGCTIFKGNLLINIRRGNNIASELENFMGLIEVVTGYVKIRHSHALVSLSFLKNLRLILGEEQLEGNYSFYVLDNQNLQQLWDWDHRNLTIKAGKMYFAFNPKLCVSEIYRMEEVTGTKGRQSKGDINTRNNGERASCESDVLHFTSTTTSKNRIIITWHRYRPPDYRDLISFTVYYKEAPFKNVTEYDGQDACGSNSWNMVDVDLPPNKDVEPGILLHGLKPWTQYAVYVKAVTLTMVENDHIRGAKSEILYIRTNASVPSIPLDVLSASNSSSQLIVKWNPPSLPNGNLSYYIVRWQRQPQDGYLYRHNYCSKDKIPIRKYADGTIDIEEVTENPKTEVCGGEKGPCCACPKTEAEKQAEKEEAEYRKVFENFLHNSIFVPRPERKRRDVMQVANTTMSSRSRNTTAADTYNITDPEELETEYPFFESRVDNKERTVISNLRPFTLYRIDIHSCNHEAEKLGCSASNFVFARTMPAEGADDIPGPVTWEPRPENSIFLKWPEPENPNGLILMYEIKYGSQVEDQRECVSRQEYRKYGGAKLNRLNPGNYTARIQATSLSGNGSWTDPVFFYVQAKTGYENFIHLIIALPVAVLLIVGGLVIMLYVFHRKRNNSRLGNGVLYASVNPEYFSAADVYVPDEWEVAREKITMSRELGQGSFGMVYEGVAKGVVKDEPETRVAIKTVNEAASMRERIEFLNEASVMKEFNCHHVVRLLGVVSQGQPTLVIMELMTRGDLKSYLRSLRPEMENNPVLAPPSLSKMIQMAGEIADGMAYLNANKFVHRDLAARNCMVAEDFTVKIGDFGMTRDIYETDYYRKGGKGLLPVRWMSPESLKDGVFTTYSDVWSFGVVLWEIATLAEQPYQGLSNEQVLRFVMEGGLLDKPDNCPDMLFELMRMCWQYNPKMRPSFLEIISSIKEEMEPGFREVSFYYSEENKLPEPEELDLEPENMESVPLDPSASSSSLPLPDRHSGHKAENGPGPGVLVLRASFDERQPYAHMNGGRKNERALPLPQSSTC

| SMILES | IC50 [nM] |
| --- | --- |
| CC(Nc1cc(CN2C(=O)N(c3ccc(C4(C(F)(F)F)CC4)cc3)C(=O)C2(C)C)ccn1)c1cnccn1 (stereo not shown) [Compound 168, 5,5-dimethyl-1-((2-((1-(pyrazin-2-yl)ethyl)amino)pyridin-4-yl)methyl)-3-(4-(1-(trifluoromethyl)cyclopropyl)phenyl) imidazolidine-2,4-dione] | ≤ 500 |
| CC(C)(C)c1ccc(N2C(=O)C(C)(C)N(Cc3ccnc4[nH]ccc34)C2=S)cc1 [Compound 407, 1-((1H-pyrrolo[2,3-b]pyridin-4-yl)methyl)-3-(4-(tert-butyl)phenyl)-5,5-dimethyl-2-thioxoimidazolidin-4-one] | 500 to 2000 |
| CC1(C)C(=O)N(c2ccc(C#N)c(C(F)(F)F)c2)C(=O)N1Cc1ccnc2c1CC(=O)N2 [Compound 76, 4-(4,4-dimethyl-2,5-dioxo-3-((2-oxo-2,3-dihydro-1H-pyrrolo[2,3-b]pyridin-4-yl)methyl)imidazolidin-1-yl)-2-(trifluoromethyl)benzonitrile] | 2000 to 10000 |
| [2H]C([2H])([2H])Nc1cc(CN2C(=O)N(c3ccc4c(c3)N(S(C)(=O)=O)CC4(C)C)C(=O)C2(C)C)ccn1 [Compound 247, 3-(3,3-dimethyl-1-(methylsulfonyl)indolin-6-yl)-5,5-dimethyl-1-((2-((methyl-d3)amino)pyridin-4-yl)methyl)imidazolidine-2,4-dione] | ≤ 500 |
| CC1(C)C(=O)N(c2ccc3c(c2)N(S(C)(=O)=O)CC3)C(=O)N1Cc1ccnc2c1CC(=O)N2 [Compound 67, 5,5-dimethyl-3-(1-(methylsulfonyl)indolin-6-yl)-1-((2-oxo-2,3-dihydro-1H-pyrrolo [2,3-b]pyridin-4-yl)methyl)imidazolidine-2,4-dione] | > 10000 |
| COCCN1CC(C)(C)c2ccc(N3C(=O)N(Cc4ccnc(NC5CCOCC5)c4)C(C)(C)C3=O)cc21 [Compound 227, 3-(1-(2-methoxyethyl)-3,3-dimethylindolin-6-yl)-5,5-dimethyl-1-((2-((tetrahydro-2H-pyran-4-yl)amino)pyridin-4-yl)methyl)imidazolidine-2,4-dione] | ≤ 500 |
| CC1(C)C(=O)N(c2ccc(C3(C(F)(F)F)CC3)cc2)C(=O)N1Cc1ccnc(NCc2nc3ccccn3n2)c1 [Compound 175, 1-((2-(([1,2,4]triazolo[1,5-a]pyridin-2-ylmethyl)amino)pyridin-4-yl)methyl)-5,5-dimethyl-3-(4-(1-(trifluoromethyl)cyclopropyl)phenyl) imidazolidine-2,4-dione] | ≤ 500 |
| Cn1cc(CNc2cc(CN3C(=O)N(c4ccc(C5(C(F)(F)F)CC5)cc4)C(=O)C3(C)C)ccn2)cn1 [Compound 169, 5,5-dimethyl-1-((2-(((1-methyl-1H-pyrazol-4-yl)methyl)amino)pyridin-4-yl)methyl)-3-(4-(1-(trifluoromethyl)cyclopropyl)phenyl) imidazolidine-2,4-dione] | ≤ 500 |
| COC[C@@H](C)Nc1cc(CN2C(=O)N(c3ccc(C(C)(C)C#N)cc3)C(=O)C2(C)C)ccn1 [Compound 150, (R)-2-(4-(3-((2-((1-methoxypropan-2-yl)amino)pyridin-4-yl)methyl)-4,4-dimethyl-2,5-dioxoimidazolidin-1-yl)phenyl)-2-methylpropanenitrile] | ≤ 500 |
| CN1CC(C)(C)c2ccc(N3C(=O)N(Cc4ccnc(N[C@H]5CCOC5)c4)C(C)(C)C3=O)cc21 [Compound 206, (S)-5,5-dimethyl-1-((2-((tetrahydrofuran-3-yl)amino)pyridin-4-yl)methyl)-3-(1,3,3-trimethylindolin-6-yl)imidazolidine-2,4-dione] | 500 to 2000 |
| CC1(C)C(=O)N(c2ccc3c(c2)N(S(C)(=O)=O)CC32CC2)C(=O)N1Cc1ccnc(N[C@H]2CCOC2)c1 [Compound 223, (S)-5,5-dimethyl-3-(1′-(methylsulfonyl)spiro[cyclopropane-1,3′-indolin]-6′-yl)-1-((2-((tetrahydrofuran-3-yl)amino)pyridin-4-yl)methyl)imidazolidine-2,4-dione] | ≤ 500 |
| CC1(C)C(=O)N(c2ccc(C3(C(F)(F)F)CC3)cc2)C(=O)N1Cc1ccnc(N[C@H]2C[C@H]2F)c1 [Compound 142, 1-((2-(((1S,2R)-2-fluorocyclopropyl)amino)pyridin-4-yl)methyl)-5,5-dimethyl-3-(4-(1-(trifluoromethyl)cyclopropyl)phenyl)imidazolidine-2,4-dione] | ≤ 500 |
| C[C@@H](CC#N)Nc1cc(CN2C(=O)N(c3cc(C(C)(C)C)nn3C)C(=O)C2(C)C)ccn1 [Compound 262, (S)-3-((4-((3-(3-(tert-butyl)-1-methyl-1H-pyrazol-5-yl)-5,5-dimethyl-2,4-dioxoimidazolidin-1-yl)methyl)pyridin-2-yl)amino)butanenitrile] | > 10000 |
| C[C@@H]1COc2c(CN3C(=O)N(c4ccc(S(=O)(=O)C(F)(F)F)cc4)C(=O)C3(C)C)ccnc2N1 [Compound 60, (R)-5,5-dimethyl-1-((3-methyl-3,4-dihydro-2H-pyrido[3,2-b][1,4]oxazin-8-yl)methyl)-3-(4-((trifluoromethyl)sulfonyl)phenyl) imidazolidine-2,4-dione] | ≤ 500 |

Other lines, results leading:

| IC50 [nM] | SMILES |
| --- | --- |
| ≤ 500 | CC(C)(C#N)c1ccc(N2C(=O)N(Cc3ccnc(N[C@H]4[C@@H]5COC[C@@H]54)c3)C(C)(C)C2=O)cc1 [Compound 162, 2-(4-(3-((2-(((1R,5S,6r)-3-oxabicyclo[3.1.0]hexan-6-yl)amino)pyridin-4-yl)methyl)-4,4-dimethyl-2,5-dioxoimidazolidin-1-yl)phenyl)-2-methylpropanenitrile] |
| ≤ 500 | Cn1ccnc1CNc1cc(CN2C(=O)N(c3ccc(C4(C(F)(F)F)CC4)cc3)C(=O)C2(C)C)ccn1 [Compound 183, 5,5-dimethyl-1-((2-(((1-methyl-1H-imidazol-2-yl)methyl)amino)pyridin-4-yl)methyl)-3-(4-(1-(trifluoromethyl)cyclopropyl)phenyl) imidazolidine-2,4-dione] |
| ≤ 500 | CC1(C)C(=O)N(c2ccc(C(C)(C)C(F)(F)F)cc2)C(=O)N1Cc1ccnc2c1CC(=O)N2 [Compound 57, 5,5-dimethyl-1-((2-oxo-2,3-dihydro-1H-pyrrolo[2,3-b]pyridin-4-yl)methyl)-3-(4-(1,1,1-trifluoro-2-methylpropan-2-yl)phenyl)imidazolidine-2,4-dione] |
| ≤ 500 | CC1(C)C(=O)N(c2ccc(C3(C(F)(F)F)CC3)cc2)C(=O)N1Cc1ccnc(NCc2nnc[nH]2)c1 [Compound 174, 1-((2-(((4H-1,2,4-triazol-3-yl)methyl)amino)pyridin-4-yl)methyl)-5,5-dimethyl-3-(4-(1-(trifluoromethyl)cyclopropyl)phenyl) imidazolidine-2,4-dione] |
| ≤ 500 | CO[C@@H](C)CNc1cc(CN2C(=O)N(c3ccc4c(c3)N(S(C)(=O)=O)CC43CCC3)C(=O)C2(C)C)ccn1 [Compound 238, (S)-1-((2-((2-methoxypropyl)amino)pyridin-4-yl)methyl)-5,5-dimethyl-3-(1′-(methylsulfonyl)spiro[cyclobutane-1,3′-indolin]-6′-yl)imidazolidine-2,4-dione] |
| ≤ 500 | [2H]C([2H])([2H])Nc1cc(CN2C(=O)N(c3ccc(S(=O)(=O)C(F)(F)F)cc3)C(=O)C2(C)C)ccn1 [Compound 408] |
| ≤ 500 | CC1(C)CN(S(C)(=O)=O)c2cc(N3C(=O)N(Cc4ccnc(N[C@@H]5C[C@@H]5F)c4)C(C)(C)C3=O)ccc21 [Compound 208, 3-(3,3-dimethyl-1-(methylsulfonyl)indolin-6-yl)-1-((2-(((1R,2S)-2-fluorocyclopropyl)amino)pyridin-4-yl)methyl)-5,5-dimethylimidazolidine-2,4-dione] |
| 500 to 2000 | CC1(C)C(=O)N(c2ccc(S(=O)(=O)C(F)(F)F)cc2)C(=O)N1Cc1ccnc(NC2CCN(S(C)(=O)=O)CC2)c1 [Compound 322, 5,5-dimethyl-1-((2-((1-(methylsulfonyl)piperidin-4-yl)amino)pyridin-4-yl)methyl)-3-(4-((trifluoromethyl)sulfonyl)phenyl) imidazolidine-2,4-dione] |
| 2000 to 10000 | CC1(C)C(=O)N(c2ccc(S(=O)(=O)C(F)(F)F)cc2)C(=O)N1Cc1ccnc(N[C@H]2CCOCC2(F)F)c1 [Compound 343, (S)-1-((2-((3,3-difluorotetrahydro-2H-pyran-4-yl)amino)pyridin-4-yl)methyl)-5,5-dimethyl-3-(4-((trifluoromethyl)sulfonyl)phenyl) imidazolidine-2,4-dione] |
| 500 to 2000 | C[C@@H](CC#N)Nc1cc(CN2C(=O)N(c3ccc(S(=O)(=O)C(F)(F)F)cc3)C(=O)C2(C)C)ccn1 [Compound 321, (S)-3-((4-((5,5-dimethyl-2,4-dioxo-3-(4-((trifluoromethyl)sulfonyl)phenyl)imidazolidin-1-yl)methyl)pyridin-2-yl)amino)butanenitrile] |
| ≤ 500 | CC(C)Nc1cc(CN2C(=O)N(c3ccc4c(c3)N(S(C)(=O)=O)CC4(C)C)C(=O)C2(C)C)ccn1 [Compound 194, 3-(3,3-dimethyl-1-(methylsulfonyl)indolin-6-yl)-1-((2-(isopropylamino)pyridin-4-yl)methyl)-5,5-dimethylimidazolidine-2,4-dione] |
